Source: article PMC9822352, “Design, Synthesis and Evaluation of New Multifunctional Benzothiazoles as Photoprotective, Antioxidant and Antiproliferative Agents” (Molecules, 2022)

What was measured:
[1] = DPPH radical scavenging test; conditions: mean ± SEM; for DPPH (% Inhibition): compound at 1 mg/mL, 30 min, 517 nm
Protocol: The DPPH assay is widely used, and the simplest and fastest in vitro method for evaluating the antioxidant power of extracts or isolated compounds; it is based on the depletion of the 2,2-diphenyl-1-picrylhydrazyl radical (DPPH˙) by an antioxidant molecule with scavenger activity. This is an extremely sensitive test that can detect the activity of active ingredients present in very low concentrations.
The procedure used was adapted from Wang et al.. Briefly, 0.750 mL of a methanolic solution of each tested compound was treated with 1.5 mL of DPPH solution (0.004%) in MeOH. Samples were stored in the dark at room temperature for 30 min, and the absorbance value was read with a spectrophotometer at 517 nm, which is the maximum peak of absorbance relative to the DPPH radical absorption spectra. The values obtained were fitted into Equation (1) and converted to inhibition percentage (%) of the radical:DPPH inhibition percentage (%) = 100 × [1 − A1/A0](1) where A1 and A0 were, respectively, the absorbance recorded with and without the sample, which are directly proportional to DPPH residual concentration in the sample and DPPH concentration in the control (0.750 of MeOH and 1.5 mL of DPPH solution). […] A linear regression was performed to calculate the sample concentration able to eliminate 50% of DPPH free radicals.

[2] = test system: melanoma Colo-38 cells; experiment: Cell growth inhibition assay, Colo-38; assay type: cell-based, human; conditions: for IC50: Homo sapiens, 24 h incubation, cell count; for SI Colo-38 (selectivity index): IC50 HaCat / IC50 Colo-38
Protocol: (§1) All synthesized compounds were tested in order to evaluate their in vitro antiproliferative activity. The human melanoma Colo-38 cell line was selected as a tumor skin model, while the immortalized human HaCaT keratinocytes were chosen as a control for the evaluation of the cytotoxicity towards non-cancerous cells and of the selectivity towards tumor cell lines. […] The selectivity index (SI) was also calculated and is the ratio between the IC50 of a given compound towards the non-cancerous cell line and the IC50 of the same compound towards the tumor cell line.
(§2) Cell growth inhibition assays were carried out using human melanoma Colo-38 cells and skin HaCat keratinocytes cells. Human melanoma Colo-38 cells were kindly provided by Dr. Patrizio Giacomini (Laboratory of Immunology, Regina Elena Institute, Rome, Italy). HaCat cells were kindly provided by Istituto Zooprofilattico Sperimentale della Lombardia e dell’Emilia Romagna, Brescia, Italy. Cell lines were seeded using concentrations of 40,000 cells/mL and 25,000 cells/mL, respectively. Colo-38 cells were maintained in RPMI 1640, supplemented with 10% fetal bovine serum (FBS), penicillin (100 Units mL^−1), and streptomycin (100 µg mL^−1). HaCat cells were maintained in DMEM, supplemented with 10% fetal bovine serum (FBS), penicillin (100 Units mL^−1), streptomycin (100 µg mL^−1) and glutamine (2 mM); the incubation was performed at 37 °C in a 5% CO2 atmosphere. Tested compounds were dissolved in MeOH/DMSO (1:1) to obtain 50 mM stock solutions and diluted before cell treatment in MeOH 100%. The tested compounds were added at serial dilutions to the cell cultures (from 0.1 to 100 µM) and incubated for 24 h further. Cells were then harvested, suspended in physiological solution, and counted with a Z2 Coulter Counter (Coulter Electronics, Hialeah, FL, USA). The cell number/mL and the IC50 values were determined when untreated cells were in the log phase of cell growth. Cells treated with vehicles and untreated cells were placed in each plate.

[3] = Photostability study of 3% formulation (post-irradiation filtering parameters); conditions: 3% in formulation; for SPF / UVA/UVB / UVAPF / λc: post irradiation; for % SPFeff (residual percentage of SPF in vitro): SPF after/before irradiation × 100; for % UVA-PFeff (residual percentage of UVA-PF): UVA-PF after/before irradiation × 100
Description: To outline the efficacy and safety profile of a sunscreen formulation, it is essential to provide data relating to photostability. It is possible to provide photodegradation data by recording, pre- and post-irradiation, the transmittance of PMMA plates with finger-coat formulations subjected to a dose of UVA capable of causing erythema, according to the criteria of Garoli et al.. By means of Equations (2) and (3) it was possible to evaluate the residual percentage of SPF in vitro and of UVA-PF for all the prepared formulations. Of greatest interest are the values obtained for the derivatives BZTcin2 and BZTcin4.
To determine the photostability, the previously reported method was adopted, which consists in preparing each plate as mentioned above and subjecting it to solar irradiation quantified as the minimum dose of UVA equivalent to an effective radiant exposure of erythema. The protocol stipulates that, before and after exposure to sunlight, the transmission of the sun protection layer in the range of 290–400 nm is recorded.
Using Equations (2) and (3) below, the residual percentage of SPF in vitro (% SPFeff.) and UVA-PF (% UVA-PFeff.) have been obtained, which, if greater than or equal to 80, can classify a filter as photostable. %SPFeff. = in vitro SPFafter/in vitro SPFbefore × 100(2) %UVA − PFeff. = UVA − PFafter/UVA − PFbefore × 100(3)

[4] = test system: HaCat keratinocytes; experiment: Cell growth inhibition assay, HaCat; assay type: cell-based, human; conditions: Homo sapiens, HaCaT; 24 h incubation, cell count
Protocol: as §1, §2

[5] = UV spectra in solution (MeOH-DMSO): λmax and molar extinction coefficient; assay type: physicochemical; conditions: for ε (molar extinction coefficient): at λmax, Lambert-Beer equation, in M-1 cm-1 (unit assumed); for λmax: solution in MeOH-DMSO, 290–400 nm
Protocol: We next investigated the protective potential against UV radiation of each compound. Specifically, in vitro tests were conducted to determine the parameters related to absorption in the UV spectrum and those fundamental to the relative evaluation of the filtering potential and thus candidature as possible UV sunscreen ingredients of the candidates under examination, including λ critical and SPF (sun protection factor). Since the SPF is correlated to the UV quantitative absorption of the substances, the wavelength of maximum absorption (λmax) and the molar extinction coefficient (ε) of the derivatives in solution (MeOH-DMSO) were evaluated (Figures S1 and S2, Supplementary Materials). The UV spectra of the compounds BZTidr1–6 and BZTcin1–5 were recorded in the UVA-UVB range (290–400 nm) to evaluate their profile and compare it to that of the PBSA, a commercial UVB filter that has a λmax of 302 nm. After this peak, the absorbance of PBSA drops, reaching almost zero in the 325 nm range, and thus not providing absorption in the UVA region.
Once the λmax of each derivative was established, the molar extinction coefficient ε was calculated by applying the Lambert-Beer equation (Table S1, Supplementary Materials): the higher this value, the greater the ability of the compound under examination to absorb UV radiation. […] The excellent values of BZTidr1, BZTidr2 and BZTidr3 are ascribed to the aforementioned hyperchromic shift. In regard to the BZTcin1–5 series, the molar extinction coefficients calculated were very high, and the best values were those of BZTcin1, BZTcin2 and BZTcin3, also attributable to the hyperchromic shift of the absorption spectra. For both series, the excellent absorption capacity of ultraviolet radiation can be traced back to the high π-type conjugation that characterizes them.

Structure (SMILES)	DPPH (% Inhibition) [1]	IC50 [2]	SI Colo-38 (selectivity index) [2]	SPF [3]	UVA/UVB [3]	UVAPF [3]	λc [3]	IC50 [4]	ε (molar extinction coefficient) [5]	λmax [5]	% SPFeff (residual percentage of SPF in vitro) [3]	% UVA-PFeff (residual percentage of UVA-PF) [3]	DPPH IC50 [1]
COc1ccc(/C=C/C(=O)Nc2nc3ccccc3s2)cc1O [BZTcin5, (E)-N-(benzo[d]thiazol-2-yl)-3-(3-hydroxy-4-methoxyphenyl)acrylamide]	40.15 ± 0.18%	10 ± 6.12 µM	8.33	3.51	1.11	3.32	377 nm	83.3 ± 5.79 µM	20688.20	342.0 nm			
O=C(/C=C/c1ccc(O)cc1)Nc1nc2ccccc2s1 [BZTcin2, (E)-N-(benzo[d]thiazol-2-yl)-3-(4-hydroxyphenyl)acrylamide]	12.37 ± 0.00%	35.2 ± 5.52 µM		11.77	1.49	10.08	377 nm	> 100 µM	32240.17	335.6 nm	96.00%	85.50%	
O=C(N/N=C/c1ccc(O)cc1)c1nc2ccccc2s1 [BZTidr2, (E)-N′-(4-hydroxybenzylidene)benzo[d]thiazole-2-carbohydrazide]	54.80 ± 1.63%	92.6 ± 1.68 µM		1.85	1.09	1.96	386 nm	> 100 µM	28637.64	335.3 nm			
O=C(/C=C/c1ccc(O)c(O)c1)Nc1nc2ccccc2s1 [BZTcin4, (E)-N-(benzo[d]thiazol-2-yl)-3-(3,4-dihydroxyphenyl)acrylamide]	>90.00%	8.31 ± 0.76 µM	4.59	8.43	1.39	10.63	380 nm	38.1 ± 5.13 µM	22387.64	347.7 nm	86.91%	93.25%	4.86 ± 0.38 µg/mL
